For one assay, the target named is T1, KIT (Homo sapiens, UniProt P10721).
T1 construct: made in house
Description: Competition binding assay, KIT Kd. The procedure, abridged:
(§1)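 Phage-fused or HEK-293/DNA-tagged kinase + ligand-coated streptavidin beads + compound, 1 h RT with shaking. Wash, elute with free ligand 30 min RT, qPCR of eluted kinase. Kd: 11-point 3-fold series.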

The target of the next assay is T2, FLT3 (Homo sapiens, UniProt P36888).
T2 construct: made in house
T2 sequence (P36888 27-993): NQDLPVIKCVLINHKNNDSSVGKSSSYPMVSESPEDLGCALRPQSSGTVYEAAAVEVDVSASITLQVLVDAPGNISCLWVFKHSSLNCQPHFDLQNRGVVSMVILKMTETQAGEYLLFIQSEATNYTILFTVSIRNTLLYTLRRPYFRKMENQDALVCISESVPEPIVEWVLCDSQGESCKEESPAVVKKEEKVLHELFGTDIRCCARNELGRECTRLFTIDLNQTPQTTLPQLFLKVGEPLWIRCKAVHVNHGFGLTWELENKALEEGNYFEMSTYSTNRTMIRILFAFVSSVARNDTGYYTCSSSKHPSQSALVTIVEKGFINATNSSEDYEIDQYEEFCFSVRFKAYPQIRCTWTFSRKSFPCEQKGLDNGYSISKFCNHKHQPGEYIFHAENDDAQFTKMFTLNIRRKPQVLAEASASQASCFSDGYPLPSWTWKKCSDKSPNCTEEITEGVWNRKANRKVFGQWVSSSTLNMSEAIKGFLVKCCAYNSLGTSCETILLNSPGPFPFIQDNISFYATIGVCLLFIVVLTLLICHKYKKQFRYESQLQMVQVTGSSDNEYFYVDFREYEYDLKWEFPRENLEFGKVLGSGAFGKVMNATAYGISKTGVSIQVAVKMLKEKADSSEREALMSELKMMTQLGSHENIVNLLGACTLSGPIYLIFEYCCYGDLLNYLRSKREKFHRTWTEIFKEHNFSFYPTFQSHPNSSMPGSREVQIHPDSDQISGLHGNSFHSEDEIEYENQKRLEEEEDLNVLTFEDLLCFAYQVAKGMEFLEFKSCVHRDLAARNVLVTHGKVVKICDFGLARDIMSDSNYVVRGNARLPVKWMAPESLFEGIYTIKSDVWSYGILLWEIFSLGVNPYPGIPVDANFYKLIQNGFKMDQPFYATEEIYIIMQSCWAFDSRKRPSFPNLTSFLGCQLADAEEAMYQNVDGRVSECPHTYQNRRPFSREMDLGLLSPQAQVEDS
Description: Competition binding assay, FLT3 Kd. In a few lines: as §1

Another assay concerns M-NFS-60 cells. As to the kind of experiment: M-NFS-60 cell proliferation assay (Alamar Blue). In kind it is cell-based, mouse. As to conditions: Mus musculus; 72 hours incubation, M-CSF 20 ng/mL; read-out: CSF1R M-NFS-60 CTB:IC50. The procedure, abridged:
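Mouse M-NFS-60 cells growing on 20 ng/mL M-CSF in RPMI/10% FBS were exposed to compounds (9 half-log concentrations, 0.5% DMSO) for 72 h at 37 °C. Viability read by Alamar Blue fluorescence (ex 560/em 590 nm, 3 h). IC50 = 50% proliferation inhibition versus control, mean of duplicates.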

The target in assay [1] is T3, CSF1R (Homo sapiens, UniProt P07333). As to the kind of experiment: Competition binding assay, CSF1R Kd. More on the design: made in house. The procedure, abridged: as §1
Assay [2] has as its target T3, CSF1R. Description: HEK293 CSF1R phosphorylation MSD assay. In kind it is cell-based. More on the design: expressed in transfected cells; host or cells: HEK293. To be noted: 2 h compound, human M-CSF 50 ng/mL for 5 min; read-out: HEK293 pCSF1R M-CSF MSD:IC50. In a few lines: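 HEK293 cells expressing CSF1R-FKBP were pretreated 2 h at 37° C with 9 half-log concentrations of compound (0.5% DMSO final), then stimulated 5 min with 50 ng/mL human M-CSF. Lysates captured on biotin-FK506 plates; phosphotyrosine detected by MSD electrochemiluminescence. IC50 versus DMSO, averaged from duplicate plates.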

In the next assay the target is T4, PDGFRβ (Homo sapiens, UniProt P09619).
T4 construct: made in house
As to the kind of experiment: Competition binding assay, PDGFRβ Kd. In a few lines:
as §1

T4 sequence (P09619 33-1106): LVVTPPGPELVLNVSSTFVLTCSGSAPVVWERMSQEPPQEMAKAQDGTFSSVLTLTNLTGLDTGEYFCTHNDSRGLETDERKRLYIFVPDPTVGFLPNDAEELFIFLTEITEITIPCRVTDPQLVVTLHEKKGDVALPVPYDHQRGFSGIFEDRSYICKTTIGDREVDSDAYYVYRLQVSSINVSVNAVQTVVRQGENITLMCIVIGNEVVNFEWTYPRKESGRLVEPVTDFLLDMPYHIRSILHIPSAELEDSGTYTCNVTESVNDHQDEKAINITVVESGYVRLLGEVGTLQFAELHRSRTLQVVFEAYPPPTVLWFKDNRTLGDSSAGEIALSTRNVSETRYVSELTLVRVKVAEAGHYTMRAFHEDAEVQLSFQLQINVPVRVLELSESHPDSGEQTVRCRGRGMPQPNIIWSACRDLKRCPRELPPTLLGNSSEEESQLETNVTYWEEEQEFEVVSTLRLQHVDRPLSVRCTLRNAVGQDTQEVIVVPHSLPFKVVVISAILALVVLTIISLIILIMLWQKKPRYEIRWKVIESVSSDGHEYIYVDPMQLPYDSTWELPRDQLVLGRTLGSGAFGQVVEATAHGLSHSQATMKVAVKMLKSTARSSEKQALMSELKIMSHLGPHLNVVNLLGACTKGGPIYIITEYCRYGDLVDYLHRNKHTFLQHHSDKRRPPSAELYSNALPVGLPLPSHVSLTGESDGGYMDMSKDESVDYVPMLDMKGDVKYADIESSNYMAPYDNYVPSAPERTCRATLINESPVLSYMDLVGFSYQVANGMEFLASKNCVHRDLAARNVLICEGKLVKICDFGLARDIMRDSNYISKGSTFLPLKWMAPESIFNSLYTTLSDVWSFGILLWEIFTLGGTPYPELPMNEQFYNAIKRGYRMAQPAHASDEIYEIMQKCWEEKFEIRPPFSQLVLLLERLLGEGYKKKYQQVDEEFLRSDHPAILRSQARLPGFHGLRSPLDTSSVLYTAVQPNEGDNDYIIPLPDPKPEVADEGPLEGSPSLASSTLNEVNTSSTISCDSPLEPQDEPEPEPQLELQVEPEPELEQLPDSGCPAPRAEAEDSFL
T1 sequence (P10721 26-976): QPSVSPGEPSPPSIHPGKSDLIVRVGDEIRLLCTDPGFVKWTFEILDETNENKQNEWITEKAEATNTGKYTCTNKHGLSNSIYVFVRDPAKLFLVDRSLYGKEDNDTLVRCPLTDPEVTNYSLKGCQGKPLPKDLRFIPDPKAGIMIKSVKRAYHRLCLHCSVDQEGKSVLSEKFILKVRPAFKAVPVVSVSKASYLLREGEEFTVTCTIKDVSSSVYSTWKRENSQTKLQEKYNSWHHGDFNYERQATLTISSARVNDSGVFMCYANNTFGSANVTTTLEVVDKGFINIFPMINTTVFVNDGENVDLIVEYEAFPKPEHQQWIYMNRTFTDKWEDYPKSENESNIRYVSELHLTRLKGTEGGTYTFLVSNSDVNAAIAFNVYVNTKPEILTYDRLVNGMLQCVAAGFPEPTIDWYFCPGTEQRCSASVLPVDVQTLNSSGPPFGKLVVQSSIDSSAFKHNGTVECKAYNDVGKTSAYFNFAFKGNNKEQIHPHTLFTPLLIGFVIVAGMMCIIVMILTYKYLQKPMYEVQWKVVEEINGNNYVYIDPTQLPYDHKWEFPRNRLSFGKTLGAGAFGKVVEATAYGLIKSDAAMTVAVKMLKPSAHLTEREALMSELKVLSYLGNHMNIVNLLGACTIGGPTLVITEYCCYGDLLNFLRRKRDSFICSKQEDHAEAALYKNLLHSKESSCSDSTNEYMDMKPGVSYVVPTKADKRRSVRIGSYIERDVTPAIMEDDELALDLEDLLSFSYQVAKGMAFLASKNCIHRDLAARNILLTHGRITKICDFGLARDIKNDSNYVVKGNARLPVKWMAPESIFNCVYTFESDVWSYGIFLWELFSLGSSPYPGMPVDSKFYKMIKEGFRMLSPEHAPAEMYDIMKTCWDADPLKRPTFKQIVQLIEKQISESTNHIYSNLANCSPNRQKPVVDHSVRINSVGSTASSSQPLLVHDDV
T3 sequence (P07333 20-972): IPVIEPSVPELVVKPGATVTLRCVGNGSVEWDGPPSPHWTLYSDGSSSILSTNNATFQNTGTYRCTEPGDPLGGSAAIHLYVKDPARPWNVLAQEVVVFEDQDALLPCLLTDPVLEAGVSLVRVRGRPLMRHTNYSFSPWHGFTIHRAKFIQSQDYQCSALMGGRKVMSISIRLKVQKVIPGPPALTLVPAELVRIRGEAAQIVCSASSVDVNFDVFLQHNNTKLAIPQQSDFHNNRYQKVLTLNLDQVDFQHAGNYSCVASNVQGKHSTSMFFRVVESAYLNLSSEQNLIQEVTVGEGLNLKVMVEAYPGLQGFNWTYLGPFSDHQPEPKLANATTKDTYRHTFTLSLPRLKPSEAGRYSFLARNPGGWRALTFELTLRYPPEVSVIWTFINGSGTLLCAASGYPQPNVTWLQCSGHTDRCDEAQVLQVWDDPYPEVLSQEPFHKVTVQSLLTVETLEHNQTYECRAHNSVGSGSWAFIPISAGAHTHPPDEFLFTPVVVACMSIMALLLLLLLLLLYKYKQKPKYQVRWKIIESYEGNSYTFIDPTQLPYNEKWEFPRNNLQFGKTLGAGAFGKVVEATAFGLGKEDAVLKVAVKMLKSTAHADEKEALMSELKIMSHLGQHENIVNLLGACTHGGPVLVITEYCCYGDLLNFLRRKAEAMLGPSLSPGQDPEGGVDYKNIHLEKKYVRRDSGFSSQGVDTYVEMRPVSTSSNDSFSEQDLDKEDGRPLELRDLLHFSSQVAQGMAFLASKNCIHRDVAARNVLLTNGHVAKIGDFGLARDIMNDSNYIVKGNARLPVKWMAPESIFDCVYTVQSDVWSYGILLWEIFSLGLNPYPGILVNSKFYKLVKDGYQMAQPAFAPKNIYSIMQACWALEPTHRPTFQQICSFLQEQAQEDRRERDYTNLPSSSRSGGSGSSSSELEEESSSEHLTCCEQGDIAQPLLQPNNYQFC

The Kd is the concentration at which binding is half-saturated. Low values mean tighter binding, high ones weaker binding. Usually IC50 stands for the concentration needed to halve the response being measured. As to `COc1cc2ncn(Cc3ccc4nc(NCC5CCCCC5)sc4c3)c2cc1OC` [Example 28, N-(cyclohexylmethyl)-6-((5,6-dimethoxy-1H-benzo[d]imidazol-1-yl)methyl)benzo[d]thiazol-2-amine], the Kd was no more than 100 nM at KIT, no more than 200 nM on FLT3, 5 to 20 nM on CSF1R [1] and no more than 50 nM at PDGFRβ. Further, the IC50 with M-NFS-60 cells was 50 to 400 nM; at CSF1R [2], 50 to 200 nM.

For `O[C@@H]1CCCC[C@H]1Nc1nc2ccc(Cn3cnc4cc(Br)cnc43)cc2s1` [Example 29, (1R,2R)-2-((6-((6-bromo-3H-imidazo[4,5-b]pyridin-3-yl)methyl)benzo[d]thiazol-2-yl)amino)cyclohexanol], the equilibrium dissociation constant (Kd) at KIT is no more than 100 nM; on FLT3, 200 to 1000 nM; at CSF1R [1], 5 to 20 nM; on PDGFRβ, 50 to 500 nM. For the same molecule, the IC50 in the assay with M-NFS-60 cells was 50 to 400 nM; on CSF1R [2], no more than 50 nM.

`COc1ccccc1Nc1nc2ccc(Cn3cnc4cc(OC)c(OC)cc43)cc2s1` [Example 30, 6-((5,6-dimethoxy-1H-benzo[d]imidazol-1-yl)methyl)-N-(2-methoxyphenyl)benzo[d]thiazol-2-amine]: the dissociation constant (Kd) on KIT was no more than 100 nM; at FLT3, 1000 to 5000 nM; at CSF1R [1], no more than 5 nM; on PDGFRβ, 50 to 500 nM. Further, the IC50 with M-NFS-60 cells was 50 to 400 nM; on CSF1R [2] it was 50 to 200 nM.

Regarding `COc1cc2ncn(Cc3ccc4nc(Nc5ccccc5O)sc4c3)c2cc1OC` [Example 31, 2-((6-((5,6-dimethoxy-1H-benzo[d]imidazol-1-yl)methyl)benzo[d]thiazol-2-yl)amino)phenol], the Kd was 100 to 500 nM at KIT, 1000 to 5000 nM at FLT3, no more than 5 nM on CSF1R [1] and 50 to 500 nM on PDGFRβ. Besides, the IC50 is greater than 1500 nM in the assay on M-NFS-60 cells and greater than 500 nM at CSF1R [2].

For the molecule `COc1ccc2ncn(Cc3ccc4nc(N[C@@H]5CCCC[C@H]5O)sc4c3)c2c1` [Example 67, (1R,2R)-2-((6-((6-methoxy-1H-benzo[d]imidazol-1-yl)methyl)benzo[d]thiazol-2-yl)amino)cyclohexanol], the Kd was no more than 100 nM on KIT, 1000 to 5000 nM on FLT3, 5 to 20 nM on CSF1R [1] and 50 to 500 nM at PDGFRβ. Moreover, the IC50 in the assay with M-NFS-60 cells was in the range of 50 to 400 nM; on CSF1R [2] it was 50 to 200 nM.

As to `COc1ccc2c(c1)ncn2Cc1ccc2nc(N[C@@H]3CCCC[C@H]3O)sc2c1` [Example 68, (1R,2R)-2-((6-((5-methoxy-1H-benzo[d]imidazol-1-yl)methyl)benzo[d]thiazol-2-yl)amino)cyclohexanol], the Kd at KIT lay within 100 to 500 nM; on FLT3 it was 1000 to 5000 nM; on CSF1R [1], 5 to 20 nM; on PDGFRβ, 50 to 500 nM. The IC50 in the assay on M-NFS-60 cells and at CSF1R [2] was no more than 50 nM in each case.

As to `O[C@@H]1Cc2ccccc2[C@H]1Nc1nc2ccc(Cn3cnc4cc(F)cnc43)cc2s1` [Example 69, (1R,2R)-1-((6-((6-fluoro-3H-imidazo[4,5-b]pyridin-3-yl)methyl)benzo[d]thiazol-2-yl)amino)-2,3-dihydro-1H-inden-2-ol], the Kd was 100 to 500 nM at KIT, 1000 to 5000 nM on FLT3, no more than 5 nM on CSF1R [1] and no more than 50 nM on PDGFRβ. Besides, the IC50 is 50 to 400 nM in the assay with M-NFS-60 cells and 50 to 200 nM at CSF1R [2].

On to `O[C@@H]1CCCC[C@H]1Nc1nc2ccc(Cn3cnc4cc(F)cnc43)cc2s1` [Example 70, (1R,2R)-2-((6-((6-fluoro-3H-imidazo[4,5-b]pyridin-3-yl)methyl)benzo[d]thiazol-2-yl)amino)cyclohexanol], for which the Kd at KIT was no more than 100 nM; on FLT3, 1000 to 5000 nM; on CSF1R [1] it was no more than 5 nM; on PDGFRβ it was 50 to 500 nM. In addition, the results for the IC50 in the assay on M-NFS-60 cells and on CSF1R [2] were 50 to 400 nM and no more than 50 nM, respectively.

For `O[C@@H]1CCCC[C@H]1Nc1nc2ccc(Cn3cnc4ccncc43)cc2s1` [Example 71, (1R,2R)-2-((6-((3H-imidazo[4,5-c]pyridin-3-yl)methyl)benzo[d]thiazol-2-yl)amino)cyclohexanol], the Kd at KIT is greater than 2000 nM; on FLT3, greater than 5000 nM; on CSF1R [1], 5 to 20 nM; at PDGFRβ it was 500 to 2000 nM. Besides, the results for the IC50 in the assay with M-NFS-60 cells and on CSF1R [2] were 400 to 1500 nM and 200 to 500 nM, respectively.

Turning to `O[C@@H]1CCCC[C@H]1Nc1nc2ccc(Cn3cnc4cnccc43)cc2s1` [Example 72, (1R,2R)-2-((6-((1H-imidazo[4,5-c]pyridin-1-yl)methyl)benzo[d]thiazol-2-yl)amino)cyclohexanol], the Kd is greater than 2000 nM at KIT, greater than 5000 nM at FLT3, 5 to 20 nM at CSF1R [1] and 500 to 2000 nM at PDGFRβ. In addition, the IC50 with M-NFS-60 cells fell in the range of 400 to 1500 nM; on CSF1R [2], 50 to 200 nM.

In the case of `O[C@@H]1CCCC[C@H]1Nc1nc2ccc(Cn3cnc4ccc(Br)nc43)cc2s1` [Example 78, (1R,2R)-2-((6-((5-bromo-3H-imidazo[4,5-b]pyridin-3-yl)methyl)benzo[d]thiazol-2-yl)amino)cyclohexanol], the Kd on KIT is no more than 100 nM; at FLT3, no more than 200 nM; at CSF1R [1], 5 to 20 nM; at PDGFRβ, no more than 50 nM. Further, the IC50 with M-NFS-60 cells and on CSF1R [2] was no more than 50 nM in each case.

Consider `COC(=O)c1cnc2c(c1)ncn2Cc1ccc2nc(N[C@@H]3CCCC[C@H]3O)sc2c1` [Example 79, methyl 3-((2-(((1R,2R)-2-hydroxycyclohexyl)amino)benzo[d]thiazol-6-yl)methyl)-3H-imidazo[4,5-b]pyridine-6-carboxylate], for which the Kd at KIT was no more than 100 nM; on FLT3, 200 to 1000 nM; at CSF1R [1], 5 to 20 nM; on PDGFRβ it was no more than 50 nM. Also, the IC50 in the assay on M-NFS-60 cells and at CSF1R [2] was no more than 50 nM each time.

Take `CC(=O)c1ccc2ncn(Cc3ccc4nc(N[C@@H]5CCCC[C@H]5O)sc4c3)c2n1` [Example 88, 1-(3-((2-(((1R,2R)-2-hydroxycyclohexyl)amino)benzo[d]thiazol-6-yl)methyl)-3H-imidazo[4,5-b]pyridin-5-yl)ethanone]: the Kd at KIT is no more than 100 nM; at FLT3 it was 200 to 1000 nM; on CSF1R [1] it was no more than 5 nM; at PDGFRβ, 50 to 500 nM. Moreover, the IC50 was no more than 50 nM with M-NFS-60 cells and 50 to 200 nM at CSF1R [2].

Take `CNC(=O)c1cnc2c(c1)ncn2Cc1ccc2nc(N[C@@H]3CCCC[C@H]3O)sc2c1` [Example 89, 3-((2-(((1R,2R)-2-hydroxycyclohexyl)amino)benzo[d]thiazol-6-yl)methyl)-N-methyl-3H-imidazo[4,5-b]pyridine-6-carboxamide]: the Kd on KIT is no more than 100 nM; on FLT3, 1000 to 5000 nM; at CSF1R [1], 5 to 20 nM; on PDGFRβ, no more than 50 nM. The IC50 lay in the range of 50 to 400 nM in the assay with M-NFS-60 cells and 50 to 200 nM at CSF1R [2].

Turning to `N=C(NO)c1cnc2c(c1)ncn2Cc1ccc2nc(N[C@@H]3CCCC[C@H]3O)sc2c1` [Example 90, N-hydroxy-3-((2-(((1R,2R)-2-hydroxycyclohexyl)amino)benzo[d]thiazol-6-yl)methyl)-3H-imidazo[4,5-b]pyridine-6-carboximidamide], the Kd at KIT lay within 100 to 500 nM; on FLT3, 1000 to 5000 nM; on CSF1R [1], 5 to 20 nM; at PDGFRβ, 50 to 500 nM. Besides, the IC50 with M-NFS-60 cells was 50 to 400 nM; on CSF1R [2] it was 50 to 200 nM.

The values are drawn from patent US9938261B2, “Heterocyclic compounds and methods of use thereof” (AMBIT BIOSCIENCES CORPORATION, priority 2011, dated 2018).
